We go through 15 compounds from PubChem BioAssay (NCI).

What all share (assay): DTP human tumour cell line panel, 48 h
The test system of test [1] is MDA-N.
In test [2] the test system is T-47D breast.
Test [3] relates to MDA-MB-231 breast.
Test [4] has as its system SR leukemia.
Test [5] concerns SNB-75 CNS.
In test [6] the test system is HCC-2998 colon.
Test [7] relates to HCT-116 colon.
Test [8] concerns A498 renal.
The test system of test [9] is 786-0 renal.

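Grown in 96-well plates, cells were treated for 48 hours with each compound at five concentrations. Insufficient inhibition: endpoint recorded as highest concentration tested. GI50: concentration for 50% inhibition of growth. Definition used: TGI = concentration required for complete inhibition of growth.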

Regarding `CCCCSCCC(N)P(=O)(O)O` (configuration not stated), the TGI in test [1], in test [2], in [3], in [4], in test [5] and in [6] was more than 100 µM each time. The TGI in [7] was more than 100 µM.
Turning to `CN(CCCNC(=O)c1nn(-c2ccccc2)c2c1Cc1ccccc1-2)CCCNC(=O)c1nn(-c2ccccc2)c2c1Cc1ccccc1-2`, the TGI turned out to be 2.66 µM in [1]; 3.6 µM in test [2]; 3.15 µM in test [8]; 2.99 µM in [3]; 1.42 µM in [4]; 2.77 µM in [6]. Besides, the values for the TGI in [7] and in test [9] were 2.87 µM and 2.9 µM, respectively.
Consider `Oc1ccc(Cl)cc1C1=Nn2c(COc3ccc4c(c3)CCCC4)nnc2SC1`, for which the TGI in [1] came to 30.2 µM; in [2], 34.3 µM; in [8], 11.8 µM; in [3], 34.2 µM; in test [7], 19.4 µM.
With `Nc1csc(-c2scc3c2OCCO3)c1N`, the TGI in test [1] was 38.8 µM; in [8], 36.6 µM; in [3], 41.4 µM; in test [4], more than 100 µM; in [6], 49.8 µM; in test [7], 46.4 µM. Further, in test [9], the TGI was determined as 33.3 µM.
Turning to `CN(CCN1C(=O)c2cccc3cccc(c23)C1=O)CCN1C(=O)c2cccc3cccc(c23)C1=O`, the TGI is 10.2 µM in [2]; 33.6 µM in test [3]; 13 µM in test [4]; 49.9 µM in test [5]; more than 100 µM in test [7]; 27.5 µM in [9].
As to `Clc1cccc(/C=c2\nc(-c3ccccc3)n3c2nc2ccccc23)c1`, the TGI in test [1] was more than 100 µM; in test [8], more than 100 µM; in test [3], more than 100 µM; in test [4] it was more than 100 µM; in test [5], 81.2 µM; in test [7] it was more than 100 µM. In test [9], the TGI is more than 100 µM.
As to `O=C1/C(=C/c2ccc([N+](=O)[O-])cc2)Sc2scc(-c3cccc([N+](=O)[O-])c3)[n+]21`, the TGI in test [1] amounted to 15.7 µM; in [2] it was 24.3 µM; in test [8], 7.98 µM; in test [3], 16.5 µM; in test [5], 25.6 µM; in test [6], 19.1 µM. Besides, the figures for the TGI in [7] and in test [9] were 18.1 µM and 4.96 µM, respectively.
For the compound `CS(=O)(=O)Nc1cccc(-c2ccc3ncnc(Nc4cncc(Cl)c4)c3c2)c1`, the GI50 in test [2] is 0.726 µM; in test [4], 1.67 µM; in test [5], 2.77 µM; in [6], 2.4 µM. Moreover, the TGI in test [2] was 6.36 µM; in test [4], 5.47 µM; in test [5], more than 100 µM; in test [6], 5.27 µM.
`COc1ccc2c3c([nH]c2c1)[C@H](C=C(C)C)N1C(=O)[C@@H]2CCCN2C(=O)[C@@H]1C3`: the TGI is more than 100 µM in test [2]; more than 100 µM in test [8]; more than 100 µM in [3]; more than 100 µM in [4]; 61 µM in [5]; more than 100 µM in [6]. For the same compound, the TGI in test [7] and in test [9] was more than 100 µM in each case.
Regarding `CCOC(=O)c1cccc(N=Nc2ncc(/C=C/C(=O)OC)[nH]2)c1`, the TGI is more than 100 µM in test [1]; 89.7 µM in [2]; 67.8 µM in test [8]; more than 100 µM in test [3]; more than 100 µM in test [4]; 92.4 µM in test [5]. Moreover, the TGI was 43.8 µM in [6], 69.7 µM in test [7] and more than 100 µM in test [9].
Consider `Cc1ccc(S(=O)(=O)Nc2cc(=O)[nH]c3c2CCC3)cc1`, for which the TGI in test [1], in [2], in test [8], in test [3], in [4] and in test [5] was more than 100 µM throughout. The TGI in test [6], in [7] and in test [9] was more than 100 µM each time.
`O=C1CNc2cc(N3CCCCC3)ccc2N1`: the TGI in [1], in test [2], in test [4], in test [5] and in [6] was more than 100 µM throughout.
On to `COc1cc(/C=C2\CC3C4CC[C@H]5C[C@@H](O)CC[C@]5(C)C4CC[C@]3(C)\C2=N\O)cc(OC)c1OC` (some centres not stated), for which the TGI in test [1] is 41.9 µM; in [2], 36.9 µM; in [8] it was 31.1 µM; in test [3], 59.7 µM; in test [5], more than 100 µM; in [6] it was 38.6 µM. Besides, the TGI in test [7] was 21.4 µM; in test [9] it was 34.8 µM.
As for `O=S(C(c1ccccc1)=P(c1ccccc1)(c1ccccc1)c1ccccc1)c1ccc(Cl)cc1` (configuration not stated), the TGI in [1] is 78.6 µM; in test [2], more than 100 µM; in test [8], 37.1 µM; in test [3] it was 70 µM; in [4] it was more than 100 µM; in [5], more than 100 µM. Also, the TGI in test [6] is more than 100 µM; in [7], 79.5 µM; in test [9] it was more than 100 µM.
With `NC(N)=N/N=C/c1c(-c2cccs2)nc2n1CCS2`, the GI50 in test [2] is 17.5 µM; in test [8] it was 5.65 µM; in test [3], 13.7 µM; in test [4], 17.6 µM. Also, the total growth inhibition concentration (TGI) in test [2] is 37.3 µM; in test [8], more than 100 µM; in test [3], 33.4 µM; in [4], 34 µM.
